The values that follow come from article PMC7472660 (Chemical Science, 2019).

The experiment deals with prostate-specific membrane antigen (PSMA) (Homo sapiens, UniProt Q04609). Description: radioligand displacement of […]mTc-MIP-1427 on PSMA+ PC-3 PiP cells. The format is cell-based. On the technique in general: Loss of bound radioactivity is the signal in a displacement assay; it reports binding, not function.

The term Ki denotes the equilibrium dissociation constant of an inhibitor or competing ligand from its target. Low values mean tighter binding, high ones weaker binding.

Sequence of prostate-specific membrane antigen (PSMA) (Q04609 whole entry): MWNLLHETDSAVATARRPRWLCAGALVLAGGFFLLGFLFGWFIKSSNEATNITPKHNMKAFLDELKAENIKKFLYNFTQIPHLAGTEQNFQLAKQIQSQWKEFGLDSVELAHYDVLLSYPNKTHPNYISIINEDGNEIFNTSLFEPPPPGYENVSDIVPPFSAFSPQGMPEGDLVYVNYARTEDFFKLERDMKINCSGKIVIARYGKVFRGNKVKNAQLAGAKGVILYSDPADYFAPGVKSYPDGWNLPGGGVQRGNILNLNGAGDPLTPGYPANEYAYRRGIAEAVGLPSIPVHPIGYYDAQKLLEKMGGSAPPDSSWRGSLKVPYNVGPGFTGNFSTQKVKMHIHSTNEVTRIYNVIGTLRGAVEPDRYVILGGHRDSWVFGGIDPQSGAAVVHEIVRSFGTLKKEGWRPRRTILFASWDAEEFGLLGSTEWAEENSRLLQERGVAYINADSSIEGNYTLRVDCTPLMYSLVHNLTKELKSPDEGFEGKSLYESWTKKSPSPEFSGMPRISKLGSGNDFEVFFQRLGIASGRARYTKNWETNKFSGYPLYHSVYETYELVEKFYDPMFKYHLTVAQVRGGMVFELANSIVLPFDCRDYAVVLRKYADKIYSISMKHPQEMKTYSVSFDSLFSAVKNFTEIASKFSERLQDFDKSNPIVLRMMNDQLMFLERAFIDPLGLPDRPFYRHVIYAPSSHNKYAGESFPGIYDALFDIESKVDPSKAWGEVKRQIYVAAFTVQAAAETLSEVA

The substance Sc(picaga)-DUPA returned a Ki of 1.6 ± 0.4 nM.

As to Sc(DOTA)-DUPA, affinity was put at a Ki of 222 ± 186 nM.
